Test results: article PMC8537048, “Characterization of Fungal FAD-Dependent AA3_2 Glucose Oxidoreductases from Hitherto Unexplored Phylogenetic Clades” (Journal of Fungi, 2021)
Blank lines part the entries; values can stand above or below the compound they belong to.

Legend:
[1] = biological target: T1, RsGDHIII (Rhizoctonia solani, UniProt A0A0B7G104); assay: spectrophotometric steady-state kinetics, reduction of […],4-benzoquinone ([…] nm); type: biochemical; details: 0.5 mM 1,4-benzoquinone fixed, pH 6.5, 30 °C
T1 construct: gene RSOLAG1IB_10481; monomer; non-covalent FAD
T1 sequence (A0A0B7G104 20-601): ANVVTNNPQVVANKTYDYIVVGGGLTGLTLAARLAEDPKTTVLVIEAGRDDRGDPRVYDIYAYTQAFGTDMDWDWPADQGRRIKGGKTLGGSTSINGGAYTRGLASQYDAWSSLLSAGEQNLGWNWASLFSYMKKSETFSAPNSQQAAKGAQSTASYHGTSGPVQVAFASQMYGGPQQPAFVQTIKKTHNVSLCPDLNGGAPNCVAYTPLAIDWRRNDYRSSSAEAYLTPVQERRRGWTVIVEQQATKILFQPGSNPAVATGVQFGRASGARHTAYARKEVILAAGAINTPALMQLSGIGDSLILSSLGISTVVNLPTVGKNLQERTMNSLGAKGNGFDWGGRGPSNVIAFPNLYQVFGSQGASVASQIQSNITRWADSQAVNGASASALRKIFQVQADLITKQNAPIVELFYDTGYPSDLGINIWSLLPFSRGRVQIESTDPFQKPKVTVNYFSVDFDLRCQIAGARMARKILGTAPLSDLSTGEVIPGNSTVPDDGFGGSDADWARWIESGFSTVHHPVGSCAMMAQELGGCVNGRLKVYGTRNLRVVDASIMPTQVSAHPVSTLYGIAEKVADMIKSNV

[2] = biological target: Aureobasidium subglaciale glucose oxidase (AsGOxII) (Aureobasidium subglaciale); assay: SEC-MALS; HPLC-SEC-MALS of the purified, native glycosylated enzyme; Superdex 200 10/300 GL, PBS pH 7.4 with 200 mM NaCl, 0.75 mL/min, 25 °C; 80 μg of protein loaded per run; oligomeric state judged against the mass of the deglycosylated subunit by SDS-PAGE
[3] = biological target: T2, TvGDHII (Trichoderma virens, UniProt G9N1C2); assay: spectrophotometric steady-state kinetics, reduction of […],4-benzoquinone ([…] nm); type: biochemical; details: 0.5 mM 1,4-benzoquinone fixed, pH 6.5, 30 °C
T2 construct: gene TRIVIDRAFT_46709; monomer; ~65 kDa deglycosylated; non-covalent FAD
T2 sequence (G9N1C2 entry or part of it): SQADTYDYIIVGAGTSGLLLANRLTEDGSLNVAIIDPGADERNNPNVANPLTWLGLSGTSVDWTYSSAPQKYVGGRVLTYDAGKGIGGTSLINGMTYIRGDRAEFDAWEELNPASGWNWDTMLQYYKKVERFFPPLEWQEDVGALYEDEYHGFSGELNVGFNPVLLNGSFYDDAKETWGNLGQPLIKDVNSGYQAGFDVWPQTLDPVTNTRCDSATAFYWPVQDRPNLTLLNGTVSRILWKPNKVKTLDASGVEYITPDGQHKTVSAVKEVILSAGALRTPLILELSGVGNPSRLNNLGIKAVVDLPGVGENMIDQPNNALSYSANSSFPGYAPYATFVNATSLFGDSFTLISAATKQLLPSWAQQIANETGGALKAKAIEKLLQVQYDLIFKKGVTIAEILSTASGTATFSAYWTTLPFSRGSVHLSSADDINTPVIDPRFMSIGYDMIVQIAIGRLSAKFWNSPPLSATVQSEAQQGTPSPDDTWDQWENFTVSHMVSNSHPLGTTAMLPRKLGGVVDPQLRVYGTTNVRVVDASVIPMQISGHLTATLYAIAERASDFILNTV

Compound: OC[C@H]1O[C@H](O[C@H]2[C@H](O)[C@@H](O)C(O)O[C@@H]2CO)[C@H](O)[C@@H](O)[C@@H]1O (stereo partly drawn) [maltose]
apparent Km [1]: 159.6 ± 9.4 mM

stoichiometry N [2]: 2
Compound: Aureobasidium subglaciale glucose oxidase (AsGOxII) (enzyme)

apparent Km [3]: 42.6 ± 2.4 mM
Compound: OC[C@H]1OC(O)[C@H](O)[C@@H](O)[C@H]1O (stereo partly drawn) [D-galactose]
